# Assay results as given in patent EP3797769A1, “COMPOSITION FOR THERAPEUTIC USE” (Fontès, M. Michel, priority 2019, dated 2021).
# Tested on: fibroblastes d'un patient souffrant de CMTX
# Assay: Abnormal cell nuclei (DAPI staining, Mitocheck classification) in fibroblasts of a CMTX patient
# Type: cell-based, humain
# Conditions: fibroblasts of the CMTX1 patient treated with clémastine at 10µmole; untreated patient cells about 30%, healthy individual less than 1% (Figure 1)
# From the text: Les anomalies des noyaux cellulaires sont étudiées en déposant les fiboblastes sur des lames de microscopie et en colorant les noyaux à de l'aide 4',6-diamidino-2-phénylindole, ou DAPI, les rendant ainsi fluorescents. Les anomalies nucléaires sont classées selon la classification établie par le Mitocheck, à savoir : i) les noyaux mal formés, ii) les noyaux polylobés, iii) les noyaux non séparés et iv) les autres.
compound,measurement,value
CN1CCC[C@@H]1CCO[C@](C)(c1ccccc1)c1ccc(Cl)cc1 [clémastine],pourcentage des noyaux anormaux,~5%
